Read-outs that look alike come from different tables or passages of the source.
Tests used:
Adenosine A3 = tested on: T1, Adenosine A3; test: Cerep binding; parameters: species or system human; conditions: 10 μM; [125I]AB-MECA; hum. recomb. (HEK-293)
T1 construct: host or cells: HEK-293

Melanocortin MC4 = tested on: T2, Melanocortin MC4; test: Cerep binding; parameters: species or system human; conditions: 10 μM; [125I]NDP-α-MSH; hum. recomb. (CHO)
T2 construct: purchased Eurofins Cerep

GABAA-α5 receptors = molecular target: T3, GABAA-α5 receptors (Homo sapiens, UniProt P18507+P31644); test: [11C]-Ro 15-4513 PET receptor occupancy study in healthy volunteers; format: in vivo; conditions: for EC50: Emax model, nine subjects
T3 construct: occupancy at the GABAA-α5 subunit-containing receptors in the human brain after oral dosing; from tissue; host or cells: brain of healthy human volunteers, in vivo PET
T3 sequence (P31644 32-462): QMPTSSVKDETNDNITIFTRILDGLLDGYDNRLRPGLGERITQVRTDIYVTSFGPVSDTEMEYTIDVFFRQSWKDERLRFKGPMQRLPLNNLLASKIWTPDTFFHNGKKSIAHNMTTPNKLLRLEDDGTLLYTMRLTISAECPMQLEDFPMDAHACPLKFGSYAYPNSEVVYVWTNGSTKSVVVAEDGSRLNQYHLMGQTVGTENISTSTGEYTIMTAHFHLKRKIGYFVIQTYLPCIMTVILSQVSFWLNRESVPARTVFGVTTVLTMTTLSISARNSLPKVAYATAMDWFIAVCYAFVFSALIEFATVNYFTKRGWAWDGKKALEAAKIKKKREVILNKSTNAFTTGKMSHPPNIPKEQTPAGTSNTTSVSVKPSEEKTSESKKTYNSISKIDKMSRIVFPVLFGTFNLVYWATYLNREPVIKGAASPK
T3 sequence (P18507 40-467 limits assumed): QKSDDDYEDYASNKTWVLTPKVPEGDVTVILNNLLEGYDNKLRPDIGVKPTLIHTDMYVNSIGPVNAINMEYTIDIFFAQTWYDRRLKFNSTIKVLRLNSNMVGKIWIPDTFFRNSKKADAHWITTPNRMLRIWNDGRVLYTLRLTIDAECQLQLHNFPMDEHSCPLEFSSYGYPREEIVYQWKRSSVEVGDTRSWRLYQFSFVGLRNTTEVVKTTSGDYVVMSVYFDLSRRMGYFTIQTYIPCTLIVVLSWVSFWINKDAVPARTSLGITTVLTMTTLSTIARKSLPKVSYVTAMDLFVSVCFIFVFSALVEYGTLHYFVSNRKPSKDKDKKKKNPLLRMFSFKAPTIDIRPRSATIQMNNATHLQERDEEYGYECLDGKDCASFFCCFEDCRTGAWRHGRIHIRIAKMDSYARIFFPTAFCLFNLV
T3 sequence (P28472 26-473 partner): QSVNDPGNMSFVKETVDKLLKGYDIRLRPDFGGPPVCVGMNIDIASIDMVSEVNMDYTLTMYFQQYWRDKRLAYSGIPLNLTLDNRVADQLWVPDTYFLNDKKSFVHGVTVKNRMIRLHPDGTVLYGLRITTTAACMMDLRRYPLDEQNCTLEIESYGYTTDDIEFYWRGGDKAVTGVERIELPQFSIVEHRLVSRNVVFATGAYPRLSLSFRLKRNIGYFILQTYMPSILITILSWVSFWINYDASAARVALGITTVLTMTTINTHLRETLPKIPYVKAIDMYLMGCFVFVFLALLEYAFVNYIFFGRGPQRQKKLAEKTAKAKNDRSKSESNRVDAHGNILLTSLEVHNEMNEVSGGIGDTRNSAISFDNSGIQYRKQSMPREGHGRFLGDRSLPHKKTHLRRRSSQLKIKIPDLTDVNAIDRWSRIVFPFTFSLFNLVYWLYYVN
Text: The PET study was undertaken as part of Protocol BP25611 and after four protocol amendments was described as: “A single-center, single blind molecular and functional imaging study to assess GABAA-α5 receptor expression, occupancy and functional connectivity in the brains of individuals with Down syndrome and healthy controls following a single oral administration of RO5186582 or placebo”. Full details of the protocol can be found in the Supplementary Information. The study was registered on August 17, 2012 with clinicaltrials.gov identifier NCT01667367.
Subjects returned for a follow-up visit approximately 7 to 10 days after their last dose of study medication.
The study was single-blind, i.e., subjects were blinded to dose. Blood sampling was performed at four different timepoints starting 30 min before the post dose PET scan.
Tissue time activity curves were analyzed using the simplified reference tissue model (SRTM[71]), with a basis pursuit implementation of the SRTM[72], to directly estimate the binding potential (BPND) in all target regions. […] Therefore, the time-activity curve derived from the cerebellum was used as an input for SRTM analysis.
Occupancy in scan 2 was estimated as a fractional reduction in the relevant baseline BPND (see Eq. (3)).3 Occ=BPNDBaseline-BPNDBasmisanil/BPNDBaseline.
The pharmacokinetic/pharmacodynamic population for GABAA-α5 receptor occupancy consisted of data from 9 subjects.

[1] = subject 11010, 40 mg, 3.75 h prior to scan
[2] = subject 11020, 160 mg, 3.12 h prior to scan
[3] = subject 11021, 160 mg, 3.00 h prior to scan
[4] = subject 13010, 40 mg, 2.63 h prior to scan
[5] = subject 13030, 1000 mg, 4.75 h prior to scan
[6] = subject 13031, 1000 mg, 4.77 h prior to scan
[7] = subject 13040, 20 mg, 1.48 h prior to scan
[8] = subject 13041, 20 mg, 2.20 h prior to scan
[9] = subject 13050, 80 mg, 2.43 h prior to scan

Cc1onc(-c2ccc(F)cc2)c1COc1ccc(C(=O)N2CCS(=O)(=O)CC2)cn1 [basmisanil]
% Inhibition (Adenosine A3): 6% | % Inhibition (Melanocortin MC4): 9% | EC50 (GABAA-α5 receptors; read-out: EC50 of receptor occupancy, free plasma concentration): 67 nM | EC50 (GABAA-α5 receptors; read-out: EC50 of receptor occupancy, total plasma concentration (converted)): ~1210 nM | Receptor occupancy, Accumbens (GABAA-α5 receptors; [1]): 52.1% | Receptor occupancy, Amygdala (GABAA-α5 receptors; [1]): 53.5% | Receptor occupancy, Anterior cingulate (GABAA-α5 receptors; [1]): 44.8% | Receptor occupancy, Hippocampus (GABAA-α5 receptors; [1]): 48.4% | Receptor occupancy, Insular cortex (GABAA-α5 receptors; [1]): 44.6% | Receptor occupancy, Mean (GABAA-α5 receptors; [1]): 48.68% | Receptor occupancy, Accumbens (GABAA-α5 receptors; [2]): 86.6% | Receptor occupancy, Amygdala (GABAA-α5 receptors; [2]): 91.4% | Receptor occupancy, Anterior cingulate (GABAA-α5 receptors; [2]): 75.6% | Receptor occupancy, Hippocampus (GABAA-α5 receptors; [2]): 87.2% | Receptor occupancy, Insular cortex (GABAA-α5 receptors; [2]): 75.2% | Receptor occupancy, Mean (GABAA-α5 receptors; [2]): 83.2% | Receptor occupancy, Accumbens (GABAA-α5 receptors; [3]): 87.0% | Receptor occupancy, Amygdala (GABAA-α5 receptors; [3]): 85.4% | Receptor occupancy, Anterior cingulate (GABAA-α5 receptors; [3]): 76.4% | Receptor occupancy, Hippocampus (GABAA-α5 receptors; [3]): 85.9% | Receptor occupancy, Insular cortex (GABAA-α5 receptors; [3]): 77.2% | Receptor occupancy, Mean (GABAA-α5 receptors; [3]): 82.38% | Receptor occupancy, Accumbens (GABAA-α5 receptors; [4]): 37.3% | Receptor occupancy, Amygdala (GABAA-α5 receptors; [4]): 40% | Receptor occupancy, Anterior cingulate (GABAA-α5 receptors; [4]): 32.7% | Receptor occupancy, Hippocampus (GABAA-α5 receptors; [4]): 41.3% | Receptor occupancy, Insular cortex (GABAA-α5 receptors; [4]): 32% | Receptor occupancy, Mean (GABAA-α5 receptors; [4]): 36.66% | Receptor occupancy, Accumbens (GABAA-α5 receptors; [5]): 89.5% | Receptor occupancy, Amygdala (GABAA-α5 receptors; [5]): 93.1% | Receptor occupancy, Anterior cingulate (GABAA-α5 receptors; [5]): 79.1% | Receptor occupancy, Hippocampus (GABAA-α5 receptors; [5]): 94.2% | Receptor occupancy, Insular cortex (GABAA-α5 receptors; [5]): 79.9% | Receptor occupancy, Mean (GABAA-α5 receptors; [5]): 87.16% | Receptor occupancy, Accumbens (GABAA-α5 receptors; [6]): 93.7% | Receptor occupancy, Amygdala (GABAA-α5 receptors; [6]): 97.4% | Receptor occupancy, Anterior cingulate (GABAA-α5 receptors; [6]): 82.1% | Receptor occupancy, Hippocampus (GABAA-α5 receptors; [6]): 94.9% | Receptor occupancy, Insular cortex (GABAA-α5 receptors; [6]): 82.2% | Receptor occupancy, Mean (GABAA-α5 receptors; [6]): 90.06% | Receptor occupancy, Accumbens (GABAA-α5 receptors; [7]): 29.6% | Receptor occupancy, Amygdala (GABAA-α5 receptors; [7]): 30.9% | Receptor occupancy, Anterior cingulate (GABAA-α5 receptors; [7]): 26.2% | Receptor occupancy, Hippocampus (GABAA-α5 receptors; [7]): 26.8% | Receptor occupancy, Insular cortex (GABAA-α5 receptors; [7]): 26.7% | Receptor occupancy, Mean (GABAA-α5 receptors; [7]): 28.04% | Receptor occupancy, Accumbens (GABAA-α5 receptors; [8]): 31.8% | Receptor occupancy, Amygdala (GABAA-α5 receptors; [8]): 34.7% | Receptor occupancy, Anterior cingulate (GABAA-α5 receptors; [8]): 31.7% | Receptor occupancy, Hippocampus (GABAA-α5 receptors; [8]): 35.8% | Receptor occupancy, Insular cortex (GABAA-α5 receptors; [8]): 31.7% | Receptor occupancy, Mean (GABAA-α5 receptors; [8]): 33.14% | Receptor occupancy, Accumbens (GABAA-α5 receptors; [9]): 64.2% | Receptor occupancy, Amygdala (GABAA-α5 receptors; [9]): 63.5% | Receptor occupancy, Anterior cingulate (GABAA-α5 receptors; [9]): 55.8% | Receptor occupancy, Hippocampus (GABAA-α5 receptors; [9]): 63% | Receptor occupancy, Mean (GABAA-α5 receptors; [9]): 60.86%

Source: PMC8032764 (Scientific Reports, 2021)
